Data on 24 compounds can be found in patent US4309437A, “Pyrrolo-benzodiazepine compounds and anti-tumor composition thereof” (priority 1979, dated 1982).

Structures can show the parent of a compound that is named as a salt.

The conditions of series [1]: known, in words; cited from earlier work.
For series [2] the following is noted: known, in words; cited from earlier work. This is another data set of the same source.
For series [3] the following is noted: said to be exhibited due to side effects; cited from earlier work.
Series [4] is described as follows: Toxicity test (LD50, intraperitoneal, mice). Format: in vivo, mouse. The following applies: mouse, in vivo, ip, dd-strain male mice, 18 to 21 g, 3 weeks observation, Probit analysis. As to the method:
(§1) Toxicity test: The compound being tested is suspended in physiological saline in varied concentrations by the serial dilution method (common ratio, 1:1.5). Each solution was administered intraperitoneally to groups of 8 to 12 dd-strain male mice, each 18 to 21 g in body weight. The mice were then bred on a usual diet and water. The LD50 value was determined by Probit analysis by observing dead and alive for 3 weeks after the administration.

The subject of series [5] is dd-strain male mice. Nature of the series: Toxicity test (LD50, intraperitoneal, mice). Format: in vivo, mouse. Conditions: 18 to 21 g, 3 weeks observation, Probit analysis, 30240 min. As to the method: as §1

Turning to `COC1Nc2c(ccc(C)c2O)C(=O)N2C=C(/C=C/C(N)=O)CC12` (single isomer, unassigned) [P"B"A"], the antibacterial activity entry in series [1] is “antibacterial and antitumor activities are exhibited”. In addition, the antitumor activity result in series [2] is reported as “very strong antitumor activity”. Besides, in series [3], the “toxicity, particularly cardiotoxicity” value is “strong toxicity, particularly cardiotoxicity”.

For `Cc1ccc2c(c1O)NC(O)C1CC(/C=C/C(N)=O)=CN1C2=O` (single isomer, unassigned) [PBA, 5,10,11,11a-tetrahydro-9,11-dihydroxy-8-methyl-5-oxo-1H-pyrrolo[2,1-c][1,4]-benzodiazepin-2-acrylamide], in series [1], the antibacterial activity entry was “antibacterial and antitumor activities are exhibited”. Further, the antitumor activity result in series [2] is reported as “very strong antitumor activity”. The LD50 at 504 h in series [4] was determined as 0.73 mg/kg. For the same compound, the “toxicity, particularly cardiotoxicity” value in series [3] was “strong toxicity, particularly cardiotoxicity”.

On to `Cc1ccc2c(c1O)N=CC1CC(/C=C/C(N)=O)=CN1C2=O` (stereo not shown) [P'B'A', 5,11,11a-trihydro-9-hydroxy-8-methyl-5-oxo-1H-pyrrolo-[2,1-c][1,4]benzodiazepin-2-acrylamide], for which the antibacterial activity entry in series [1] was “antibacterial and antitumor activities are exhibited”. In series [2], the antitumor activity entry is “very strong antitumor activity”. Further, the “toxicity, particularly cardiotoxicity” value in series [3] is listed as “strong toxicity, particularly cardiotoxicity”.

Compound `CC(=O)Oc1c(C)ccc2c1N(C(C)=O)C(S(=O)O)C1CC(/C=C/C(N)=O)=CN1C2=O` (stereo not shown) [R1=COCH3, R2=COCH3, R3=SO2 H, 5,10,11,11a-tetrahydro-9-acetoxy-10-acetyl-8-methyl-5-oxo-11-sulfino-1H-pyrrolo-[2,1-c][1,4]benzodiazepin-2-acrylamide] registered an LD50 in series [5] of 2.62 mg/kg.

`CC(=O)Oc1c(C)ccc2c1N(C(C)=O)C(S(=O)O)C1CC(/C=C/C(N)=O)=CN1C2=O` (stereo not shown) [R1=COCH3, R2=COCH3, R3=SO2 Na]: the LD50 at 504 h in series [4] was found to be 2.71 mg/kg.

In series [5], `CC(=O)Oc1c(C)ccc2c1N(C(C)=O)C(S(=O)(=O)O)C1CC(/C=C/C(N)=O)=CN1C2=O` (stereo not shown) [R1=COCH3, R2=COCH3, R3=SO3 H, 5,10,11,11a-Tetrahydro-9-acetoxy-10-acetyl-8-methyl-5-oxo-11-sulfo-1H-pyrrolo[2,1-c][1,4]benzodiazepin-2-acrylamide] showed an LD50 of 2.81 mg/kg.

The compound `CC(=O)Oc1c(C)ccc2c1N(C(C)=O)C(S(=O)(=O)O)C1CC(/C=C/C(N)=O)=CN1C2=O` (stereo not shown) [R1=COCH3, R2=COCH3, R3=SO3 Na] returned an LD50 at 504 h in series [4] of 3.04 mg/kg.

For `CC(=O)Oc1c(C)ccc2c1NC(S(=O)O)C1CC(/C=C/C(N)=O)=CN1C2=O` (stereo not shown) [R1=COCH3, R2=H, R3=SO2 H, 5,10,11,11a-Tetrahydro-9-acetoxy-8-methyl-5-oxo-11-sulfino-1H-pyrrolo[2,1-c][1,4]benzodiazepin-2-acrylamide], the LD50 at 504 h in series [4] amounted to 2.54 mg/kg.

Consider `CC(=O)Oc1c(C)ccc2c1NC(S(=O)O)C1CC(/C=C/C(N)=O)=CN1C2=O` (stereo not shown) [R1=COCH3, R2=H, R3=SO2 Na, 5,10,11,11a-tetrahydro-9-acetoxy-8-methyl-5-oxo-11-sulfino-1H-pyrrolo[2,1-c][1,4]benzodiazepin-2-acrylamide sodium salt], for which the median lethal dose (LD50) in series [5] (sodium salt) amounted to 2.60 mg/kg.

In series [4], `CC(=O)Oc1c(C)ccc2c1NC(S(=O)(=O)O)C1CC(/C=C/C(N)=O)=CN1C2=O` (stereo not shown) [R1=COCH3, R2=H, R3=SO3 H, 5,10,11,11a-tetrahydro-9-acetoxy-8-methyl-5-oxo-11-sulfo-1H-pyrrolo[2,1-c][1,4]benzodiazepin-2-acrylamide] yielded a 50% lethal dose (LD50) at 504 h of 2.68 mg/kg.

The compound `CC(=O)N1c2c(ccc(C)c2OC(N)=O)C(=O)N2C=C(/C=C/C(N)=O)CC2C1S(=O)O` (stereo not shown) [R1=CONH2, R2=COCH3, R3=SO2 H, 5,10,11,11a-tetrahydro-10-acetyl-9-carbamyloxy-8-methyl-5-oxo-11-sulfino-1H-pyrrolo[2,1-c][1,4]benzodiazepin-2-acrylamide] yielded an LD50 at 504 h in series [4] of 2.84 mg/kg.

Turning to `CC(=O)N1c2c(ccc(C)c2OC(N)=O)C(=O)N2C=C(/C=C/C(N)=O)CC2C1S(=O)(=O)O` (stereo not shown) [R1=CONH2, R2=COCH3, R3=SO3 H, 5,10,11,11a-Tetrahydro-10-acetyl-9-carbamyloxy-8-methyl-5-oxo-11-sulfo-1H-pyrrolo[2,1-c][1,4]benzodiazepin-2-acrylamide], the LD50 at 504 h in series [4] came out at 2.8 mg/kg.

`Cc1ccc2c(c1OC(N)=O)NC(S(=O)O)C1CC(/C=C/C(N)=O)=CN1C2=O` (stereo not shown) [R1=CONH2, R2=H, R3=SO2 H, 5,10,11,11a-Tetrahydro-9-carbamyloxy-8-methyl-5-oxo-11-sulfino-1H-pyrrolo[2,1-c][1,4]benzodiazepin-2-acrylamide] had an LD50 at 504 h in series [4] of 2.37 mg/kg.

`Cc1ccc2c(c1OC(N)=O)NC(S(=O)(=O)O)C1CC(/C=C/C(N)=O)=CN1C2=O` (stereo not shown) [R1=CONH2, R2=H, R3=SO3 H, 5,10,11,11a-Tetrahydro-9-carbamyloxy-8-methyl-5-oxo-11-sulfo-1H-pyrrolo[2,1-c][1,4]benzodiazepin-2-acrylamide]: the LD50 at 504 h in series [4] was found to be 2.4 mg/kg.

Compound `COC(=O)Oc1c(C)ccc2c1NC(S(=O)O)C1CC(/C=C/C(N)=O)=CN1C2=O` (stereo not shown) [R1=COOCH3, R2=H, R3=SO2 H] showed an LD50 at 504 h in series [4] of 2.56 mg/kg.

In series [4], `COC(=O)Oc1c(C)ccc2c1NC(S(=O)(=O)O)C1CC(/C=C/C(N)=O)=CN1C2=O` (stereo not shown) [R1=COOCH3, R2=H, R3=SO3 H, 5,10,11,11a-tetrahydro-8-methyl-9-methoxycarbonyloxy-5-oxo-11-sulfo-1H-pyrrolo[2,1-c][1,4]-benzodiazepin-2-acrylamide] displayed an LD50 at 504 h of 2.55 mg/kg.

`CC(=O)N1c2c(ccc(C)c2O)C(=O)N2C=C(/C=C/C(N)=O)CC2C1S(=O)O` (stereo not shown) [R1=H, R2=COCH3, R3=SO2 H, 5,10,11,11a-tetrahydro-10-acetyl-9-hydroxy-8-methyl-5-oxo-11-sulfino-1H-pyrrolo-[2,1-c][1,4]benzodiazepin-2-acrylamide] displayed a median lethal dose (LD50) at 504 h in series [4] of 2.5 mg/kg.

As to `CC(=O)N1c2c(ccc(C)c2O)C(=O)N2C=C(/C=C/C(N)=O)CC2C1S(=O)(=O)O` (stereo not shown) [R1=H, R2=COCH3, R3=SO3 H, 5,10,11,11a-Tetrahydro-10-acetyl-9-hydroxy-8-methyl-5-oxo-11-sulfo-1H-pyrrolo[2,1-c][1,4]benzodiazepin-2-acrylamine], the LD50 in series [5] is listed as 2.43 mg/kg.

Consider `CC(=O)N1c2c(ccc(C)c2O)C(=O)N2C=C(/C=C/C(N)=O)CC2C1S(=O)(=O)O` (stereo not shown) [R1=H, R2=COCH3, R3=SO3 Na, 5,10,11,11a-tetrahydro-10-acetyl-9-hydroxy-8-methyl-5-oxo-11-sulfo-1H-pyrrolo[2,1-c][1,4]benzodiazepin-2-acrylamide sodium salt], for which, in series [4], the LD50 at 504 h was found to be 2.51 mg/kg.

The compound `Cc1ccc2c(c1O)NC(S(=O)O)C1CC(/C=C/C(N)=O)=CN1C2=O` (stereo not shown) [R1=H, R2=H, R3=SO2 H, 5,10,11,11a-tetrahydro-9-hydroxy-8-methyl-5-oxo-11-sulfino-1H-pyrrolo[2,1-c][1,4]-benzodiazepin-2-acrylamide] displayed an LD50 at 504 h in series [4] of 2.18 mg/kg.

Regarding `Cc1ccc2c(c1O)NC(S(=O)O)C1CC(/C=C/C(N)=O)=CN1C2=O` (stereo not shown) [R1=H, R2=H, R3=SO2 K], the LD50 in series [5] is 2.31 mg/kg.

`Cc1ccc2c(c1O)NC(S(=O)O)C1CC(/C=C/C(N)=O)=CN1C2=O` (stereo not shown) [R1=H, R2=H, R3=SO2 Na] gave an LD50 in series [5] of 2.28 mg/kg.

Consider `Cc1ccc2c(c1O)NC(S(=O)(=O)O)C1CC(/C=C/C(N)=O)=CN1C2=O` (stereo not shown) [R1=H, R2=H, R3=SO3 H, 5,10,11,11a-Tetrahydro-9-hydroxy-8-methyl-5-oxo-11-sulfo-1H-pyrrolo[2,1-c][1,4]benzodiazepin-2-acrylamide], for which, in series [4], the LD50 at 504 h was found to be 2.21 mg/kg.

Compound `Cc1ccc2c(c1O)NC(S(=O)(=O)O)C1CC(/C=C/C(N)=O)=CN1C2=O` (stereo not shown) [R1=H, R2=H, R3=SO3 Na] came in with an LD50 in series [5] of 2.31 mg/kg.

One may read the LD50 as the dose expected to kill half of the subjects tested.
